This is an account of results in patent publication US9376418B2, “Substituted pyridine spleen tyrosine kinase (SYK) inhibitors” (Merck Sharp & Dohme Corp., priority 2012, dated 2016).

For the test, the target named is T1, recombinant human GST-SYK (Homo sapiens, UniProt P43405).
T1 construct: purchased Carna Biosciences 08-176
The test can be described thus: Homogeneous Time-Resolved Fluorescence (HTRF) assay for the recombinant human Syk enzyme. The settings on record: HTRF assay, recombinant human GST-SYK; IC50 given as class symbols; read-out: rhSYK Activity. Type of test: biochemical. The method, boiled down: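 Phosphorylation of a biotinylated Syk substrate peptide (250 nM) was run for 45 min at room temperature with 25 μM ATP and 5 mM Mg. It followed a 10-min preincubation of GST-hSYK ([…]) with compound in 15 mM Tris-HCl pH 7.5, 2 mM DTT. Product was detected by time-resolved fluorescence using a europium anti-phosphotyrosine antibody plus SA-APC in EDTA-containing quench buffer.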
(TR-FRET usually uses a lanthanide donor and a delayed reading to cut background.)
As for `Cc1cc(Nc2nccc(C(F)(F)F)n2)cc(-c2ccc(C(=O)NCCS(C)(=O)=O)nc2)c1` [Example 16.64, N-[2-(methylsulfonyl)ethyl]-5-(3-methyl-5-{[4-(trifluoromethyl)pyrimidin-2-yl]amino}phenyl)pyridine-2-carboxamide], the IC50 lay within 100 to 1000 nM. Turning to `Cc1cc(Nc2nccc(C(F)(F)F)n2)cc(-c2ccnc(NCc3cnn(C)c3)c2)c1` [Example 15.35, N-[3-methyl-5-(2-{[(1-methyl-1H-pyrazol-4-yl)methyl]amino}pyridin-4-yl)phenyl]-4-(trifluoromethyl)pyrimidin-2-amine], the IC50 was 100 to 1000 nM.

`CCCCOC(=O)C1CCC(C(C)(O)c2ccc(-c3cc(C)cc(Nc4ncc(Cl)c(C)n4)c3)cn2)CC1` (single isomer, unassigned) [Example 9.53, butyl trans-4-[(1R or 1S)-1-(5-{3-[(5-chloro-4-methylpyrimidin-2-yl)amino]-5-methylphenyl}pyridin-2-yl)-1-hydroxyethyl]cyclohexanecarboxylate]: the IC50 is 100 to 1000 nM. Then `COCC1CCN(c2cc(-c3cc(C)cc(Nc4nccc(C(F)(F)F)n4)c3)ccn2)C1` (stereo not shown) [Example 15.77, N-(3-{2-[3-(methoxymethyl)pyrrolidin-1-yl]pyridin-4-yl}-5-methylphenyl)-4-(trifluoromethyl)pyrimidin-2-amine], with 100 to 1000 nM. On to `Cc1cc(Nc2nccc(C(F)(F)F)n2)cc(-c2ccc(C(O)(CO)CO)nc2)c1` [Example 9.33, 2-[5-(3-methyl-5-{[4-(trifluoromethyl)pyrimidin-2-yl]amino}phenyl)pyridin-2-yl]propane-1,2,3-triol], for which the IC50 is less than 100 nM.

Turning to `Cc1cc(Nc2nccc(C(F)(F)F)n2)cc(-c2ccc(NC(=O)CC(=O)O)nc2)c1` [Example 8.4, 3-{[5-(3-methyl-5-{[4-(trifluoromethyl)pyrimidin-2-yl]amino}phenyl)pyridin-2-yl]amino}-3-oxopropanoic acid], the IC50 was less than 100 nM.

For `Cc1cc(Nc2nccc(C(F)(F)F)n2)cc(-c2cncc(C(O)(CO)CO)c2)c1` [Example 9.80, 2-[5-(3-methyl-5-{[4-(trifluoromethyl)pyrimidin-2-yl]amino}phenyl)pyridin-3-yl]propane-1,2,3-triol], the IC50 is less than 100 nM.

As to `CCOC(=O)c1cncc(-c2cc(C)cc(Nc3nccc(C(F)(F)F)n3)c2)c1` [Example 2.68, ethyl 5-(3-methyl-5-{[4-(trifluoromethyl)pyrimidin-2-yl]amino}phenyl)pyridine-3-carboxylate], the IC50 was less than 100 nM. For the compound `Cc1cc(Nc2nccc(C(F)(F)F)n2)cc(-c2ccc(C(O)C(F)(F)C(=O)O)nc2)c1` (stereo not shown) [Example 24.2, 2,2-Difluoro-3-hydroxy-3-[5-(3-methyl-5-{[4-(trifluoromethyl)pyrimidin-2-yl]amino}phenyl)pyridin-2-yl]propanoic acid], the IC50 was less than 100 nM. On to `Cc1cc(Nc2nccc(C(F)(F)F)n2)cc(-c2ccc(C(=O)N3CCCC(C)(O)C3)nc2)c1` (stereo not shown) [Example 16.47, 3-methyl-1-{[5-(3-methyl-5-{[4-(trifluoromethyl)pyrimidin-2-yl]amino}phenyl)pyridin-2-yl]carbonyl}piperidin-3-ol], for which the IC50 was less than 100 nM.

Consider `CC(C)(Nc1ccc(-c2cccc(Nc3nccc(C(F)(F)F)n3)c2)cn1)C(=O)O` [Example 7.125, 2-methyl-N-[5-(3-{[4-(trifluoromethyl)pyrimidin-2-yl]amino}phenyl)pyridin-2-yl]alanine], for which the IC50 was less than 100 nM. Regarding `Cc1cc(Nc2nccc(C(F)(F)F)n2)cc(-c2ccc(C(=O)NC(C)c3ccccn3)nc2)c1` (stereo not shown) [Example 16.22, 5-(3-methyl-5-{[4-(trifluoromethyl)pyrimidin-2-yl]amino}phenyl)-N-(1-pyridin-2-ylethyl)pyridine-2-carboxamide], the IC50 lay within 100 to 1000 nM.

For `Cc1cc(Nc2nccc(C3CC3)n2)cc(-c2ccc(C(C)(O)[C@H]3CC[C@H](C(=O)O)CC3)nc2)c1` (single isomer, unassigned) [Example 9.19, trans-4-[(1R or 1S)-1-(5-{3-[(4-cyclopropylpyrimidin-2-yl)amino]-5-methylphenyl}pyridin-2-yl)-1-hydroxyethyl]cyclohexanecarboxylic acid], the IC50 is less than 100 nM. In the case of `Cc1cc(Nc2nccc(C)n2)cc(-c2ccc(C3(O)CCC(C(=O)O)C(C)(C)C3)nc2)c1` (stereo not shown) [Example 9.39, 4-hydroxy-2,2-dimethyl-4-(5-{3-methyl-5-[(4-methylpyrimidin-2-yl)amino]phenyl}pyridin-2-yl)cyclohexanecarboxylic acid], the IC50 is less than 100 nM. Regarding `CC[C@@H](C)[C@@H](Nc1ccc(-c2cc(C)cc(Nc3nccc(C(F)(F)F)n3)c2)cn1)C(=O)O` [Example 7.101, N-[5-(3-methyl-5-{[4-(trifluoromethyl)pyrimidin-2-yl]amino}phenyl)pyridin-2-yl]-D-isoleucine], the IC50 was less than 100 nM.

In the case of `Cc1cc(Nc2nccc(C(F)(F)F)n2)cc(-c2ccc(CN)nc2)c1` [Example 2.63, N-{3-[6-(aminomethyl)pyridin-3-yl]-5-methylphenyl}-4-(trifluoromethyl)pyrimidin-2-amine], the IC50 is less than 100 nM. For `CNS(=O)(=O)CCNC(=O)c1ccc(-c2cc(C)cc(Nc3nccc(C(F)(F)F)n3)c2)cn1` [Example 16.57, N-[2-(methylsulfamoyl)ethyl]-5-(3-methyl-5-{[4-(trifluoromethyl)pyrimidin-2-yl]amino}phenyl)pyridine-2-carboxamide], the IC50 was less than 100 nM.

For the compound `Cc1cc(Nc2nccc(C(F)(F)F)n2)cc(-c2ccc(N3CC(C4CCC(C(=O)O)CC4)C3)nc2)c1` (stereo not shown) [Example 7.145, 4-{1-[5-(3-methyl-5-{[4-(trifluoromethyl)pyrimidin-2-yl]amino}phenyl)pyridin-2-yl]azetidin-3-yl}cyclohexanecarboxylic acid], the IC50 is less than 100 nM. On to `Cc1cc(Nc2nccc(C(F)(F)F)n2)cc(-c2ccc([C@]3(O)CC[C@@](C)(C(=O)O)CC3)nc2)c1` [Example 9.11, cis-4-hydroxy-1-methyl-4-[5-(3-methyl-5-{[4-(trifluoromethyl)pyrimidin-2-yl]amino}phenyl)pyridin-2-yl]cyclohexanecarboxylic acid], for which the IC50 was less than 100 nM.

With `CC(=O)C(C)(O)c1cncc(-c2cc(C)cc(Nc3nccc(C(F)(F)F)n3)c2)c1` (stereo not shown) [Example 9.72, 3-hydroxy-3-[5-(3-methyl-5-{[4-(trifluoromethyl)pyrimidin-2-yl]amino}phenyl)pyridin-3-yl]butan-2-one], the IC50 was less than 100 nM. As for `Cc1cc(Nc2nccc(C(F)(F)F)n2)cc(-c2ccc(C(=O)N(C)CCO)nc2)c1` [Example 16.6, N-(2-hydroxyethyl)-N-methyl-5-(3-methyl-5-{[4-(trifluoromethyl)pyrimidin-2-yl]amino}phenyl)pyridine-2-carboxamide], the IC50 is less than 100 nM. Take `Cc1cc(Nc2nccc(OC3CCNCC3)n2)cc(-c2cccnc2)c1` [Example 20.2, N-[3-methyl-5-(pyridin-3-yl)phenyl]-4-(piperidin-4-yloxy)pyrimidin-2-amine]: the IC50 is less than 100 nM. The result for `CC1(C)CC(O)(c2ccc(-c3cc(F)cc(Nc4nccc(C(F)(F)F)n4)c3)cn2)CCC1C(=O)O` (single isomer, unassigned) [Example 9.14, (1R,4S or 1S,4R)-4-[5-(3-fluoro-5-{[4-(trifluoromethyl)pyrimidin-2-yl]amino}phenyl)pyridin-2-yl]-4-hydroxy-2,2-dimethylcyclohexanecarboxylic acid] reads less than 100 nM; that for `Cc1cc(Nc2nccc(C(F)(F)F)n2)cc(-c2ccnc(N3CCN(C)C(=O)C3)c2)c1` [Example 15.47, 1-methyl-4-[4-(3-methyl-5-{[4-(trifluoromethyl)pyrimidin-2-yl]amino}phenyl)pyridin-2-yl]piperazin-2-one], less than 100 nM; that for `Cc1cc(Nc2nccc(C(F)(F)F)n2)cc(-c2ccnc(C3(O)COC(C)(C)OC3)c2)c1` [Example 9.62, 2,2-dimethyl-5-[4-(3-methyl-5-{[4-(trifluoromethyl)pyrimidin-2-yl]amino}phenyl)pyridin-2-yl]-1,3-dioxan-5-ol], 100 to 1000 nM. Take `CCC(CO)Nc1cc(-c2cc(C)cc(Nc3nccc(C(F)(F)F)n3)c2)ccn1` (stereo not shown) [Example 15.37, 2-{[4-(3-methyl-5-{[4-(trifluoromethyl)pyrimidin-2-yl]amino}phenyl)pyridin-2-yl]amino}butan-1-ol]: the IC50 was less than 100 nM. With `Cc1cc(Nc2nccc(C(F)(F)F)n2)cc(-c2ccc(S(=O)(=O)NCC(=O)O)nc2)c1` [Example 21.1, N-{[5-(3-methyl-5-{[4-(trifluoromethyl)pyrimidin-2-yl]amino}phenyl)pyridin-2-yl]sulfonyl}glycine], the IC50 is less than 100 nM.

Consider `Cc1cc(Nc2nccc(C(F)(F)F)n2)cc(-c2ccnc(CCC(=O)O)c2)c1` [Example 2.133, 3-[4-(3-methyl-5-{[4-(trifluoromethyl)pyrimidin-2-yl]amino}phenyl)pyridin-2-yl]propanoic acid], for which the IC50 is less than 100 nM.

Turning to `Cc1cc(Nc2ncc(Cl)c(C)n2)cc(-c2ccc(N[C@H]3CC[C@H](C(=O)O)CC3)nc2)c1` [Example 2.119, trans-4-[(5-{3-[(5-chloro-4-methylpyrimidin-2-yl)amino]-5-methylphenyl}pyridin-2-yl)amino]cyclohexanecarboxylic acid], the IC50 was less than 100 nM. With `Cc1cc(Nc2nccc(C(F)(F)F)n2)cc(-c2ccnc(N3CC(C)NC(C)C3)c2)c1` (stereo not shown) [Example 15.85, N-{3-[2-(3,5-dimethylpiperazin-1-yl)pyridin-4-yl]-5-methylphenyl}-4-(trifluoromethyl)pyrimidin-2-amine], the IC50 was less than 100 nM.

For `Cc1cc(Nc2nccc(C(F)(F)F)n2)cc(-c2ccc(N(C)CC(=O)O)nc2)c1` [Example 7.39, N-methyl-N-[5-(3-methyl-5-{[4-(trifluoromethyl)pyrimidin-2-yl]amino}phenyl)pyridin-2-yl]glycine], the IC50 was less than 100 nM.
